# Measurements: ChEMBL document CHEMBL1138436, “Biological activity and chemistry of taxoids from the Japanese yew, Taxus cuspidata” (J Nat Prod, 2004)
# Assays:
# Format in all cases: functional
# [1] = Growth inhibition of human HBC4 cells
# [2] = Growth inhibition of human BSY1 cells
# [3] = Growth inhibition of human HBC5 cells
# MCF7 = test: Growth inhibition of human MCF7 cells
# MDA-MB-231 = test: Growth inhibition of human MDA-MB-231 cells
# U-251 = test: Growth inhibition of human U251 cells
# SF-268 = test: Growth inhibition of human SF268 cells
# SF-295 = test: Growth inhibition of human SF295 cells
# SNB-75 = test: Growth inhibition of human SNB75 cells
# SNB-78 = test: Growth inhibition of human SNB78 cells
# HCC 2998 = test: Growth inhibition of human HCC2998 cells
# HCT-15 = test: Growth inhibition of human HCT15 cells
# HCT-116 = test: Growth inhibition of human HCT116 cells
# NCI-H522 = test: Growth inhibition of human NCI-H522 cells
# A549 = test: Growth inhibition of human A549 cells
# DMS-273 = test: Growth inhibition of human DMS273 cells
# LOX IMVI = test: Growth inhibition of human LOXIMVI cells
# OVCAR-3 = test: Growth inhibition of human OVCAR-3 cells
# OVCAR-4 = test: Growth inhibition of human OVCAR4 cells
# OVCAR-5 = test: Growth inhibition of human OVCAR5 cells
# OVCAR-8 = test: Growth inhibition of human OVCAR8 cells
# SK-OV-3 = test: Growth inhibition of human SKOV3 cells
# ACHN = test: Growth inhibition of human ACHN cells
# St-4 = test: Growth inhibition of human St-4 cells
# [4] = Growth inhibition of human MKN1 cells
# MKN-7 = test: Growth inhibition of human MKN7 cells
# PC-3 = test: Growth inhibition of human PC3 cells
# DMS-114 = test: Growth inhibition of human DMS114 cells
# [5] = read-out: LC50 (the source's name)
# [6] = read-out: pLC50 (the source's name) (converted)
compound,measurement,setting,value
C=C1[C@@H](OC(=O)/C=C/c2ccccc2)C[C@H](OC(C)=O)[C@]2(C)[C@@H]1C[C@]1(C(C)(C)O)C[C@H](OC(C)=O)C(C)=C1[C@@H](OC(=O)c1ccccc1)[C@@H]2OC(C)=O [TAXUSPINE A],GI50,[1]; read-out: GI50,100 µM
same,CC50,[1]; [5],> 100 µM
same,TGI,[1]; read-out: TGI,> 100 µM
same,GI50,[1]; read-out: pGI50 (converted),72.4 µM
same,TGI,[1]; read-out: pTGI (converted),100 µM
same,GI50,"[2]; BSY-1, read-out: GI50",6.9 µM
same,CC50,"[2]; BSY-1, read-out: LC50 (the source's name)",> 100 µM
same,TGI,"[2]; BSY-1, read-out: TGI",82 µM
same,GI50,"[2]; BSY-1, read-out: pGI50 (converted)",6.92 µM
same,CC50,"[2]; BSY-1, read-out: pLC50 (the source's name) (converted)",100 µM
same,TGI,"[2]; BSY-1, read-out: pTGI (converted)",87.1 µM
same,GI50,[3]; read-out: GI50,100 µM
same,CC50,[3]; [5],> 100 µM
same,TGI,[3]; read-out: TGI,> 100 µM
same,GI50,[3]; read-out: pGI50 (converted),25.1 µM
same,TGI,[3]; read-out: pTGI (converted),100 µM
same,GI50,MCF7; read-out: GI50,9.3 µM
same,CC50,MCF7; [5],> 100 µM
same,TGI,MCF7; read-out: TGI,> 100 µM
same,GI50,MCF7; read-out: pGI50 (converted),9.33 µM
same,CC50,MCF7; [6],100 µM
same,TGI,MCF7; read-out: pTGI (converted),100 µM
same,GI50,MDA-MB-231; read-out: GI50,16 µM
same,CC50,MDA-MB-231; [5],> 100 µM
same,TGI,MDA-MB-231; read-out: TGI,> 100 µM
same,GI50,MDA-MB-231; read-out: pGI50 (converted),16.2 µM
same,CC50,MDA-MB-231; [6],100 µM
same,TGI,MDA-MB-231; read-out: pTGI (converted),100 µM
same,TGI,U-251,> 100 µM
same,GI50,U-251; read-out: GI50,71 µM
same,CC50,U-251; [5],> 100 µM
same,GI50,U-251; read-out: pGI50 (converted),70.8 µM
same,TGI,SF-268,> 100 µM
same,GI50,SF-268; read-out: GI50,43 µM
same,CC50,SF-268; [5],> 100 µM
same,GI50,SF-268; read-out: pGI50 (converted),42.7 µM
same,CC50,SF-268; [6],100 µM
same,GI50,SF-295; read-out: GI50,10 µM
same,CC50,SF-295; [5],> 100 µM
same,TGI,SF-295; read-out: TGI,> 100 µM
same,GI50,SF-295; read-out: pGI50 (converted),11 µM
same,TGI,SF-295; read-out: pTGI (converted),100 µM
same,GI50,SNB-75; read-out: GI50,7.3 µM
same,CC50,SNB-75; [5],> 100 µM
same,TGI,SNB-75; read-out: TGI,68 µM
same,GI50,SNB-75; read-out: pGI50 (converted),7.24 µM
same,CC50,SNB-75; [6],100 µM
same,TGI,SNB-75; read-out: pTGI (converted),67.6 µM
same,GI50,SNB-78; read-out: GI50,3.2 µM
same,CC50,SNB-78; [5],> 100 µM
same,TGI,SNB-78; read-out: TGI,> 100 µM
same,GI50,SNB-78; read-out: pGI50 (converted),3.16 µM
same,CC50,SNB-78; [6],100 µM
same,TGI,SNB-78; read-out: pTGI (converted),100 µM
same,TGI,HCC 2998,> 100 µM
same,GI50,HCC 2998; read-out: GI50,26 µM
same,CC50,HCC 2998; [5],> 100 µM
same,GI50,HCC 2998; read-out: pGI50 (converted),26.3 µM
same,GI50,HCT-15; read-out: GI50,29 µM
same,CC50,HCT-15; [5],> 100 µM
same,TGI,HCT-15; read-out: TGI,> 100 µM
same,GI50,HCT-15; read-out: pGI50 (converted),28.8 µM
same,CC50,HCT-15; [6],100 µM
same,TGI,HCT-15; read-out: pTGI (converted),100 µM
same,TGI,HCT-116,> 100 µM
same,GI50,HCT-116; read-out: GI50,5.6 µM
same,CC50,HCT-116; [5],> 100 µM
same,GI50,HCT-116; read-out: pGI50 (converted),5.62 µM
same,CC50,HCT-116; [6],100 µM
same,GI50,NCI-H522; read-out: GI50,3.1 µM
same,CC50,NCI-H522; [5],> 100 µM
same,TGI,NCI-H522; read-out: TGI,81 µM
same,GI50,NCI-H522; read-out: pGI50 (converted),3.09 µM
same,TGI,NCI-H522; read-out: pTGI (converted),81.3 µM
same,GI50,A549; read-out: GI50,9.6 µM
same,CC50,A549; [5],> 100 µM
same,TGI,A549; read-out: TGI,> 100 µM
same,GI50,A549; read-out: pGI50 (converted),9.55 µM
same,CC50,A549; [6],100 µM
same,TGI,A549; read-out: pTGI (converted),100 µM
same,GI50,DMS-273; read-out: GI50,4.2 µM
same,CC50,DMS-273; [5],> 100 µM
same,TGI,DMS-273; read-out: TGI,> 100 µM
same,GI50,DMS-273; read-out: pGI50 (converted),4.37 µM
same,TGI,DMS-273; read-out: pTGI (converted),100 µM
same,GI50,LOX IMVI; read-out: GI50,38 µM
same,CC50,LOX IMVI; [5],> 100 µM
same,TGI,LOX IMVI; read-out: TGI,> 100 µM
same,GI50,LOX IMVI; read-out: pGI50 (converted),38 µM
same,TGI,LOX IMVI; read-out: pTGI (converted),100 µM
same,GI50,OVCAR-3; read-out: GI50,5 µM
same,CC50,OVCAR-3; [5],> 100 µM
same,TGI,OVCAR-3; read-out: TGI,> 100 µM
same,GI50,OVCAR-3; read-out: pGI50 (converted),5.01 µM
same,CC50,OVCAR-3; [6],100 µM
same,TGI,OVCAR-3; read-out: pTGI (converted),100 µM
same,GI50,OVCAR-4; read-out: GI50,22 µM
same,CC50,OVCAR-4; [5],> 100 µM
same,TGI,OVCAR-4; read-out: TGI,> 100 µM
same,GI50,OVCAR-4; read-out: pGI50 (converted),22.4 µM
same,CC50,OVCAR-4; [6],100 µM
same,TGI,OVCAR-4; read-out: pTGI (converted),100 µM
same,GI50,OVCAR-5; read-out: GI50,32 µM
same,CC50,OVCAR-5; [5],> 100 µM
same,TGI,OVCAR-5; read-out: TGI,> 100 µM
same,GI50,OVCAR-5; read-out: pGI50 (converted),32.4 µM
same,CC50,OVCAR-5; [6],100 µM
same,TGI,OVCAR-5; read-out: pTGI (converted),100 µM
same,GI50,OVCAR-8; read-out: GI50,100 µM
same,CC50,OVCAR-8; [5],> 100 µM
same,TGI,OVCAR-8; read-out: TGI,> 100 µM
same,GI50,OVCAR-8; read-out: pGI50 (converted),100 µM
same,CC50,OVCAR-8; [6],100 µM
same,TGI,OVCAR-8; read-out: pTGI (converted),100 µM
same,GI50,SK-OV-3; read-out: GI50,100 µM
same,CC50,SK-OV-3; [5],> 100 µM
same,TGI,SK-OV-3; read-out: TGI,> 100 µM
same,GI50,SK-OV-3; read-out: pGI50 (converted),100 µM
same,CC50,SK-OV-3; [6],100 µM
same,TGI,SK-OV-3; read-out: pTGI (converted),100 µM
same,GI50,ACHN; read-out: GI50,87 µM
same,CC50,ACHN; [5],> 100 µM
same,TGI,ACHN; read-out: TGI,> 100 µM
same,GI50,ACHN; read-out: pGI50 (converted),87.1 µM
same,TGI,ACHN; read-out: pTGI (converted),100 µM
same,GI50,St-4; read-out: GI50,24 µM
same,CC50,St-4; [5],> 100 µM
same,TGI,St-4; read-out: TGI,> 100 µM
same,GI50,St-4; read-out: pGI50 (converted),24 µM
same,CC50,St-4; [6],100 µM
same,TGI,St-4; read-out: pTGI (converted),100 µM
same,GI50,"[4]; MKN-1, read-out: GI50",93 µM
same,CC50,"[4]; MKN-1, read-out: LC50 (the source's name)",> 100 µM
same,TGI,"[4]; MKN-1, read-out: TGI",> 100 µM
same,GI50,"[4]; MKN-1, read-out: pGI50 (converted)",93.3 µM
same,CC50,"[4]; MKN-1, read-out: pLC50 (the source's name) (converted)",100 µM
same,TGI,"[4]; MKN-1, read-out: pTGI (converted)",100 µM
same,TGI,MKN-7,> 100 µM
same,GI50,MKN-7; read-out: GI50,5.1 µM
same,CC50,MKN-7; [5],> 100 µM
same,GI50,MKN-7; read-out: pGI50 (converted),5.13 µM
same,GI50,PC-3; read-out: GI50,5.2 µM
same,CC50,PC-3; [5],> 100 µM
same,TGI,PC-3; read-out: TGI,> 100 µM
same,GI50,PC-3; read-out: pGI50 (converted),5.25 µM
same,TGI,PC-3; read-out: pTGI (converted),100 µM
same,GI50,DMS-114; read-out: GI50,7.8 µM
same,CC50,DMS-114; [5],> 100 µM
same,TGI,DMS-114; read-out: TGI,> 100 µM
same,GI50,DMS-114; read-out: pGI50 (converted),7.76 µM
